Like-named read-outs stand apart in the source and are kept apart here. Marks after values point to notes of the source that are not given here.
Key:
Format in all cases: in vivo
[1] = test system: Puccinia recondita f. sp. tritici; test: Test G: curative spray on inoculated wheat seedlings, wheat leaf rust, visual disease rating; conditions: 200 ppm test suspension
Protocol: General protocol for preparing test suspensions for Tests A-I: the test compounds were first dissolved in acetone in an amount equal to 3% of the final volume and then suspended at the desired concentration (in ppm) in acetone and purified water (50/50 mix by volume) containing 250 ppm of the surfactant Trem® 014 (polyhydric alcohol esters). The resulting test suspensions were then used in Tests A-I. Each test was conducted in triplicate, and the results were averaged. Spraying a 200 ppm test suspension to the point of run-off on the test plants was the equivalent of a rate of about 800 g/ha. Unless otherwise indicated, the rating values indicate a 200 ppm test suspension was used. (An asterisk “*” next to the rating value indicates a 40 ppm test suspension was used.) Wheat seedlings were inoculated with a spore suspension of Puccinia recondita f. sp. tritici (the causal agent of wheat leaf rust) and incubated in a saturated atmosphere at 20° C. for 24 h, and then moved to a growth chamber at 20° C. for 2 days. At the end of this time the test suspension was sprayed to the point of run-off, and then the seedlings were moved to a growth chamber at 20° C. for 4 days after which time visual disease ratings were made. […]

[2] = test system: Blumeria graminis f. sp. tritici; test: Test I: preventive spray on wheat seedlings, wheat powdery mildew, visual disease rating; conditions: 192 h, 200 ppm test suspension
Protocol: General protocol for preparing test suspensions for Tests A-I: the test compounds were first dissolved in acetone in an amount equal to 3% of the final volume and then suspended at the desired concentration (in ppm) in acetone and purified water (50/50 mix by volume) containing 250 ppm of the surfactant Trem® 014 (polyhydric alcohol esters). The resulting test suspensions were then used in Tests A-I. Each test was conducted in triplicate, and the results were averaged. Spraying a 200 ppm test suspension to the point of run-off on the test plants was the equivalent of a rate of about 800 g/ha. Unless otherwise indicated, the rating values indicate a 200 ppm test suspension was used. (An asterisk “*” next to the rating value indicates a 40 ppm test suspension was used.) The test suspension was sprayed to the point of run-off on wheat seedlings. The following day the seedlings were inoculated with a spore dust of Blumeria graminis f. sp. tritici (also known as Erysiphe graminis f. sp. tritici, the causal agent of wheat powdery mildew) and incubated in a growth chamber at 20° C. for 8 days, after which time visual disease ratings were made. Results for Tests A-I are given in Table A. In the Table, a rating of 100 indicates 100% disease control and a rating of 0 indicates no disease control (relative to the controls). A hyphen (-) indicates no test results.

[3] = test system: Rhizoctonia solani; test: Test D: preventive spray on creeping bent grass seedlings, turf brown patch, disease rating; conditions: 200 ppm test suspension
Protocol: General protocol for preparing test suspensions for Tests A-I: the test compounds were first dissolved in acetone in an amount equal to 3% of the final volume and then suspended at the desired concentration (in ppm) in acetone and purified water (50/50 mix by volume) containing 250 ppm of the surfactant Trem® 014 (polyhydric alcohol esters). The resulting test suspensions were then used in Tests A-I. Each test was conducted in triplicate, and the results were averaged. Spraying a 200 ppm test suspension to the point of run-off on the test plants was the equivalent of a rate of about 800 g/ha. Unless otherwise indicated, the rating values indicate a 200 ppm test suspension was used. (An asterisk “*” next to the rating value indicates a 40 ppm test suspension was used.) The test suspension was sprayed to the point of run-off on creeping bent grass (Agrostis sp.) seedlings. The following day the seedlings were inoculated with a bran and mycelial slurry of Rhizoctonia solani (the causal agent of turf brown patch) and incubated in a saturated atmosphere at 27° C. for 48 h, and then moved to a growth chamber at 27° C. for 3 days, after which time disease ratings were made. Results for Tests A-I are given in Table A. In the Table, a rating of 100 indicates 100% disease control and a rating of 0 indicates no disease control (relative to the controls). A hyphen (-) indicates no test results.

[4] = test system: Phytophthora infestans; conditions: tomato late blight
[5] = Single oral dose pharmacokinetics in rats, plasma and fat analysed by LC/MS (fat:plasma ratio); conditions: single dose via oral gavage, compared to corresponding compounds with a nonhydrogen substituent at the para position of the phenyl ring connected to R^1 and R^2
Protocol: The pharmacokinetic properties of compounds of Formula 1 can be measured using a wide variety of assay protocols known in the science of pharmacology. In one illustrative method involving a single oral dose, three male and three female rats receive a single dose of a test substance via oral gavage. Approximately 0.25 mL of blood is collected via tail vein immediately prior to dosing, and then at 0.25, 0.5, 1, 2, 4, 8, 12, 24 h and every 24 h thereafter until sacrifice. At sacrifice, fat is also collected to determine the fat:plasma ratio at sacrifice. Blood is collected into tubes that contain ethylenediaminetetracetic acid (EDTA) and centrifuged at 2500×g in order to separate plasma from blood cells. The plasma is then extracted by protein precipitation using, for example, acetonitrile and a protein precipitation plate (e.g., Strata Impact Protein Precipitation Plate, part number CEO-7565 of Phenomenex, Torrance, Calif., U.S.A.) following directions provided for the plate. Alternatively, the plasma is extracted just with acetonitrile, vortexed (i.e. mixed using a vortex mixer), and centrifuged to pellet the proteins. After removal of the proteins, the plasma is analyzed for parent compound and/or metabolites by liquid chromatography-mass spectrometry (LC/MS). The fat is homogenized and extracted by an organic solvent such as acetonitrile. The extract is then analyzed for parent compound and/or metabolites by LC/MS. The plasma pharmacokinetic data is then analyzed using nonlinear modeling software (e.g., WinNonlin™ from Pharsight, Cary, N.C., U.S.A.) to determine half-life of the administered compound in plasma, the time after administration when the maximum plasma concentration is reached (Tmax), the maximum plasma concentration (Cmax) and the area under the plasma concentration curve (AUC). As analysis of fat requires rat sacrifice, fat data is obtained at single time points (i.e. the time of rat sacrifice). However, by using multiple rats sacrificed after different intervals from time of dosing, such parameters as Cmax for fat are determined.

Cc1nn(C)c(Nc2c(F)cccc2F)c1-c1ccc(F)cc1Cl [Compound 2, 4-(2-chloro-4-fluorophenyl)-N-(2,6-difluorophenyl)-1,3-dimethyl-1H-pyrazol-5-amine]
Test G rating (% disease control) [1]: 0% | pest or weed control at 200 ppm [2]: 100%

Cc1nn(C)c(Nc2ccccc2F)c1-c1ccc(F)cc1Cl [Compound 1, 4-(2-chloro-4-fluorophenyl)-N-(2-fluorophenyl)-1,3-dimethyl-1H-pyrazol-5-amine]
Test D rating (% disease control) [3]: 99% | Test C rating (% disease control) ([4]; 200 ppm test suspension, preventive spray): 0% | pest or weed control at 200 ppm [2]: 100%

Cc1nn(C)c(Nc2c(F)cccc2Cl)c1-c1ccc(F)cc1Cl [Compound 3, 4-(2-chloro-4-fluorophenyl)-N-(2-chloro-6-fluorophenyl)-1,3-dimethyl-1H-pyrazol-5-amine]
distribution into fat [5]: significantly diminished distribution into fat | Test G rating (% disease control) [1]: 100% | Test C rating (% disease control) ([4]; asterisked rating: test suspension other than 200 ppm): 0* % | pest or weed control at 200 ppm [2]: 99%
